One assay has as its system apyrase. As to the kind of experiment: In vitro apyrase assay (screen for apyrase inhibitors, phosphate release read at 630 nm). Format: biochemical. Conditions: inhibitor conc at 1 mM; 1 hr at room temperature; rounded average of two assay results. The method, then: Method 1: In Vitro Apyrase Assay: Apyrase inhibitors useful as enhancers of pesticidal activity are assessed using an in vitro assay. The method of Windsor, Bio Techniques 33:1024-1030 (November 2002) was used as follows: Screen for Apyrase Inhibitors - 96 well plates were used for the assay: (Greiner bio-one: REF-655901-96 well, PS, F-bottom, Clear, Non-binding) Buffers: • Reaction Buffer: 60 mM Hepes; 3 mM MgCl2, 3 mM CaCl2 and 3 mM ATP (pH 6.5) • Development Buffer A: 2% aqueous ammonium molybdate • Development Buffer B: 11% ascorbic acid in 37.5% TCA in water • Stop buffer C: 2% trisodium citrate in 2% acetic acid solution in water • Add 100 μl of reaction buffer to each well. • Add […] (control) or inhibitor/compound or compounds such as […] or orthovanadate to each well. […] A blank cell indicates either <10% observed inhibition or a large difference between repetitions. In certain examples, the lack of observed inhibition is due to a lack of solubility of the compound under assay conditions, rather than a lack of apyrase inhibitory activity. Roux compound 15 inhibited apyrase in this assay at about 60%.

In assay [1] the test system is Botrytis cinerea on tomatoes. Briefly: Greenhouse crop test in combination with commercial fungicide. It is filed as in vivo. The conditions noted are these: for control of Botrytis by Amistar in combination with test compound: Amistar 0.03 L/ha; for activity against Botrytis of Balaya in combination with test compound: Balaya 0.0015 L/ha, compared to Balaya alone; for control of Botrytis by Proline in combination with test compound: Proline 0.00075 L/ha, compared to Proline alone. The method, then: (§1) Method 3: Greenhouse Crop Tests
(§2) In this method, exemplary compounds were evaluated for their ability to control Zymoseptoria tritici on wheat, Botrytis cinerea on tomatoes, Asian Soya Rust (Phakopsora pachyrhizi) on soybean, and Brown Rust (Puccinia recondita) on wheat, in a controlled greenhouse environment in combination with one of four fungicides, Amistar, Imtrex, Proline or Balaya. In these studies, soybean cultivar Siverka, tomato (Money maker) and wheat plants (JB Diego) were used. Seeds were sown in 9 cm diameter pots to a depth of 1 to 2 cm using Petersfield potting compost (75% medium grade peat, 12% screened sterilized loam, 3% medium grade vermiculite, 10% grit (5 mm screened, lime free), 1.5 kg PG mix per m3, lime to pH5.5-6.0 and wetting agent (Vitax Ultrawet 200 ml per m3) and germinated/grown at 23° C. under a 16 h day/8 h night light regime. Plants were treated two to three weeks after sowing when they were at the BBCH 11 growth stage (first pair of true leaves (unifoliate) unfolded. A track sprayer was used to treat the plants with the mixture of commercial fungicide and test compound using a water volume of 200 L/ha. Plants were inoculated with the appropriate fungi (pathogen) 24 hours after treatment. Fungal pathogens used were Botrytis cinerea (Grey mold on tomato plants), Zymoseptoria tritici (Septoria leaf blotch on wheat plants), Puccinia triticina (Brown rust on wheat plants) and Phakopsora pachyrhyzi (Asian soy rust on soybean plants). Four replicates were used for each combination of fungicide, pathogen and test compound. Each plant was evaluated once the disease symptoms were fully expressed between seven to twenty days (depending on the pathogen) for % control of the disease. Appropriate controls were used for all experiments, including an ‘inoculation check’ wherein plants were inoculated with their specific pathogen to assess disease levels. Also, each commercial fungicide was tested on its own as a part of each treatment, this being benchmark against which the experimental compounds were evaluated. […] That is, the present compounds, although not fungicidal by themselves, enhance the activity of fungicides.
(§3) In these studies the fungicide was applied at the following rates

The next assay concerns Microdochium nivale. Briefly: In vitro assessment of combination activity with fungicides on agar.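 Further: scored as inactive or active or highly active.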 Format: cell-based. The conditions noted are these: fungicide at a rate just below that giving any control; visual assessment of % control. As to the method:
(§4) Method 2: In Vitro Assessment of Combination Activity
(§5) Selected compounds were assessed in combination with fungicides against a range of commercially important plant pathogenic fungi.
(§6) The test was conducted as follows. A fungicide was applied to a fungal plant pathogen at a rate slightly below that at which it gave any control, in combination with a suitable dose of the test compound. The test compound was recorded as active if control of the pathogen was observed.
(§7) In more detail, the test was conducted as follows. For each combination of fungicide, pathogen and test compound, the following wells were used. Well 1 contained a fungal pathogen growing on agar, and a fungicide at a rate just below that at which it gave any control of the pathogen. Well 2 was the same as Well 1, except that the test compound was also added at Rate 1. Well 3 was the same as Well 2, except that the test compound was added at Rate 2, where Rate 2 was higher than Rate 1. Finally, as a benchmark, Well 4 was the same as Well 1, except that it contained the fungicide at a higher rate, at which it gave partial control of the pathogen. Each of the Wells 1 to 4 were run in duplicate, giving a total of 8 wells for each combination of fungicide, pathogen and test compound. For each well, after a suitable period of incubation, a visual assessment of the % control of the pathogen by the fungicide was made.
(§8) The following fungicides were used in this assay: azoxystrobin, fluxapyroxad, and desthio prothioconazole. The following fungal pathogens were used in this assay. First, a strain of Zymoseptoria tritici with a reduced susceptibility to strobilurin fungicides; second a strain of Zymoseptoria tritici with a reduced susceptibility to SDHI fungicides (i.e., those that inhibit succinate dehydrogenase); and third, Microdochium nivale.

Assay [2] relates to Zymoseptoria tritici with a reduced susceptibility to SDHI fungicides. Described as above. It is filed as cell-based. Conditions: fungicide at a rate just below that giving any control; visual assessment of % control. As to the method: as §4, §5, §6, §7, §8
Assay [3] deals with Zymoseptoria tritici with a reduced susceptibility to strobilurin fungicides. Described as above. Conditions: fungicide at a rate just below that giving any control; visual assessment of % control. It is filed as cell-based. As to the method: as §4, §5, §6, §7, §8
Assay [4] has as its system Zymoseptoria tritici on wheat. Briefly: Greenhouse crop test in combination with commercial fungicide. Format: in vivo. Conditions: test compound at 20 ppm. The method, then:
as §1, §2, §3

The mark [5] stands for this setting: test compound rate not printed (same rate for both, the higher rate), compared to Amistar alone.
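Wherever activity in combination with azoxystrobin is given: scored as inactive or active or highly active.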
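Wherever activity in combination with desthio prothioconazole is given: scored as inactive or active or highly active.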
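Wherever activity in combination with fluxapyroxad is given: scored as inactive or active or highly active.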

As to `C/C(=N\NC(=O)c1cccc(F)c1)c1ccccn1` [I-4, (E)-3-fluoro-N′-(1-(pyridin-2-yl)ethylidene)benzohydrazide], in the assay on apyrase, the “% Inhibition of Apyrase” value amounted to 24%. The “control of Botrytis by Amistar in combination with test compound” value in assay [1] (test compound at 15 ppm, compared to Amistar with Roux Compound 15 at 15 ppm) is “much higher levels of control”; in assay [1] (setting [5]), “substantially higher than with Amistar alone”. The “activity against Botrytis of Balaya in combination with test compound” value in assay [1] (test compound at 15 ppm) is “significantly more active”. Also, the “control of Botrytis by Imtrex in combination with test compound” value in assay [1] (Imtrex 0.005 L/ha, test compound at 30 ppm, compared to Imtrex alone or with Roux Compound 15 at 30 ppm) is “far superior control”. Besides, the “control of Botrytis by Proline in combination with test compound” value in assay [1] (test compound at 30 ppm) is on record as “notably higher than with Proline alone”. In addition, the “activity in combination with azoxystrobin” value (from here on “activity … with azoxystrobin”) (in the assay on Microdochium nivale; in assay [2]; in assay [3]) was “significant activity” throughout. Further, the “activity in combination with desthio prothioconazole” value (in the assay on Microdochium nivale; in assay [2]; in assay [3]) was “significant activity” in each case. For the same compound, the “activity in combination with fluxapyroxad” value (shortened to “activity … with fluxapyroxad”) (with Microdochium nivale; in assay [2]; in assay [3]) was “significant activity” in each case.

Take `CCCC/C=N/NC(=O)c1ccccc1` [I-9, (E)-N′-pentylidenebenzohydrazide]: the “% Inhibition of Apyrase” value with apyrase is listed as 19%. The “activity … with azoxystrobin” value in the assay on Microdochium nivale was “significant activity”. Moreover, in assay [2], the “activity in combination with desthio prothioconazole” value was “significant activity”.

With `C/C(=N\NC(=O)c1cccc(C)c1)c1cnc2ccccc2c1` [I-215, (E)-3-methyl-N′-(1-(quinolin-3-yl)ethylidene)benzohydrazide], the “% Inhibition of Apyrase” value in the assay on apyrase was determined as 46%. The “activity … with fluxapyroxad” value with Microdochium nivale is on record as “significant activity”.

For the compound `C/C(=N\NC(=O)c1ccnc(C)n1)c1ccc2ccccc2c1` [I-219, (E)-2-methyl-N′-(1-(naphthalen-2-yl)ethylidene)pyrimidine-4-carbohydrazide], the “% Inhibition of Apyrase” value in the assay with apyrase was determined as 40%.

Regarding `C/C(=N\NC(=O)c1cccc(CO)c1)c1ccc2ccccc2c1` [I-220, (E)-3-(hydroxymethyl)-N′-(1-(naphthalen-2-yl)ethylidene)benzohydrazide], in the assay with apyrase, the “% Inhibition of Apyrase” value was found to be 25%.

Turning to `C/C(=N\NC(=O)c1cccc(S(=O)(=O)N(C)C)c1)c1ccc2ccccc2c1` [I-221, (E)-N,N-dimethyl-3-(2-(1-(naphthalen-2-yl)ethylidene)hydrazine-1-carbonyl)benzenesulfonamide], in the assay with apyrase, the “% Inhibition of Apyrase” value is reported as 23%.

`CNS(=O)(=O)c1cccc(C(=O)N/N=C(\C)c2ccc3ccccc3c2)c1` [I-222, (E)-N-methyl-3-(2-(1-(naphthalen-2-yl)ethylidene)hydrazine-1-carbonyl)benzenesulfonamide]: the “% Inhibition of Apyrase” value with apyrase turned out to be 12%.

For `C/C(=N\NC(=O)c1cc(C)ncn1)c1ccc2ccccc2c1` [I-223, (E)-6-methyl-N′-(1-(naphthalen-2-yl)ethylidene)pyrimidine-4-carbohydrazide], in the assay with apyrase, the “% Inhibition of Apyrase” value amounted to 10%. The “control of Zymoseptoria tritici by Balaya in combination with test compound” value in assay [4] (Balaya 0.0015 L/ha, compared to Balaya alone or with Roux Compound 15 at 30 ppm) was “notable superior results”. The “control of Zymoseptoria tritici by Proline in combination with test compound” value in assay [4] (Proline 0.0075 L/ha, compared to Proline alone and with Roux Compound 15) was “notable superior results”. For the same compound, the “activity … with fluxapyroxad” value in the assay with Microdochium nivale is “significant activity”. Also, the “activity in combination with desthio prothioconazole” value in assay [3] was “significant activity”.

Take `C/C(=N\NC(=O)c1cccc(C)c1)c1ccc2c(c1)CCC2` [I-224, (E)-N′-(1-(2,3-dihydro-1H-inden-5-yl)ethylidene)-3-methylbenzohydrazide]: the “% Inhibition of Apyrase” value with apyrase was determined as 10%.

On to `C/C(=N\NC(=O)c1nccc(C)n1)c1ccc2ccccc2c1` [I-225, (E)-4-methyl-N′-(1-(naphthalen-2-yl)ethylidene)pyrimidine-2-carbohydrazide], for which the “% Inhibition of Apyrase” value with apyrase is given as 6%.

In the case of `C/C(=N\NC(=O)c1cncc(C)c1)c1ccc2ccccc2c1` [I-226, (E)-5-methyl-N′-(1-(naphthalen-2-yl)ethylidene)nicotinohydrazide], the “% Inhibition of Apyrase” value with apyrase is reported as 1%.

In the case of `C/C(=N\NC(=O)c1cccc(C)c1)c1ccc2ccccc2c1` [Roux compound 15, reference compound], the “% Inhibition of Apyrase” value in the assay with apyrase is reported as “about 60%”. Besides, the “control of Botrytis by Amistar in combination with test compound” value in assay [1] (setting [5]) is “substantially higher than with Amistar alone”. Besides, the “activity against Botrytis of Balaya in combination with test compound” value in assay [1] (test compound at 15 ppm) was “no more active against Botrytis than Balaya alone”. Also, the “control of Botrytis by Proline in combination with test compound” value in assay [1] (test compound at 30 ppm) was “notably higher than with Proline alone”. For the same compound, in the assay with Microdochium nivale, the “activity … with azoxystrobin” value is “no activity”, the “activity in combination with desthio prothioconazole” value is given as “no activity” and the “activity … with fluxapyroxad” value is given as “no activity”. Also, in assay [2], the “activity … with azoxystrobin” value is “no activity”, the “activity in combination with desthio prothioconazole” value is given as “no activity” and the “activity … with fluxapyroxad” value is “no activity”. In assay [3], the “activity … with azoxystrobin” value is on record as “no activity”, the “activity in combination with desthio prothioconazole” value is recorded as “no activity” and the “activity … with fluxapyroxad” value is on record as “no activity”.

Values taken from US20240101510A1, “APYRASE INHIBITORS” (Texas Crop Science, priority 2022, published 2024).
